Test results as given in patent publication US20190053492A1, “SUBSTITUTED PYRIDINE COMPOUNDS AS PESTICIDES” (Bayer CropScience Aktiengesellschaft, priority 2016, published 2019).

Experiments:
Phaedon cochleariae = Phaedon cochleariae spray test; assay type: in vivo; conditions: after 7 days, Chinese cabbage leaf discs
Experimental: Phaedon cochleariae—Spray Test
Solvent: 78.0 parts by weight of acetone • • 1.5 parts by weight of dimethylformamide
Emulsifier: alkylaryl polyglycol ether
To produce a suitable active ingredient formulation, 1 part by weight of active ingredient is dissolved with the specified parts by weight of solvent and made up with water containing an emulsifier concentration of 1000 ppm until the desired concentration is attained. To produce further test concentrations, the formulation is diluted with emulsifier-containing water.
Discs of Chinese cabbage leaves (Brassica pekinensis) are sprayed with an active ingredient formulation of the desired concentration and, after drying, populated with larvae of the mustard beetle (Phaedon cochleariae).
After 7 days, the efficacy in % is determined. 100% means that all the beetle larvae have been killed; 0% means that no beetle larvae have been killed.

Spodoptera frugiperda = Spodoptera frugiperda spray test; assay type: in vivo; conditions: after 7 days, maize leaf discs
Outline: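 Maize leaf discs were sprayed with compound formulated in acetone/DMF and emulsifier-containing water, dried, then infested with Spodoptera frugiperda caterpillars. Percent kill was scored after 7 days, from 100% (all dead) to 0% (none dead).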

[1] = log P by HPLC on reversed-phase column (C 18), EEC Directive 79/831 Annex V.A8; assay type: physicochemical; conditions: 55° C.; for LOGP_HCOOH: log P (HCOOH), acidic range pH 2.7, 0.1% aqueous formic acid and acetonitrile, reversed-phase column (C 18); for LOGP_NEUTRAL: log P, neutral range, HPLC on reversed-phase column (C 18)
Experimental: Temperature: 55° C. […] Called log P (HCOOH) in the table. […] Called log P (neutral) in the table.

CC(NC(=O)c1cc(-c2ccc(C(F)(F)F)cc2)cc(NC(=O)C2CC2)n1)c1ccc(C(F)(F)F)cc1 (stereo not drawn) [Example I-057]
efficacy (beetle larvae killed) (Phaedon cochleariae; application rate 500 g/ha): 83% | efficacy (caterpillars killed) (Spodoptera frugiperda; application rate 500 g/ha): 100% | LOGP_HCOOH [1]: 4.91 | LOGP_NEUTRAL [1]: 4.77

C[C@H](NC(=O)c1cc(-c2ccc(C(F)(F)F)cc2)cc(NC(=O)C2CC2)n1)c1ccc(C(F)(F)F)cc1 [Example I-060]
efficacy (beetle larvae killed) (Phaedon cochleariae; application rate 500 g/ha): 100% | efficacy (caterpillars killed) (Spodoptera frugiperda; application rate 100 g/ha): 83% | efficacy (caterpillars killed) (Spodoptera frugiperda; application rate 500 g/ha): 100% | LOGP_HCOOH [1]: 4.89 | LOGP_NEUTRAL [1]: 4.82

C[C@H](NC(=O)c1cc(-c2ccc(OC(F)(F)F)cc2)cc(NC(=O)C2CC2)n1)c1ccc(C(F)(F)F)cc1 [Example I-061]
efficacy (beetle larvae killed) (Phaedon cochleariae; application rate 500 g/ha): 100% | efficacy (caterpillars killed) (Spodoptera frugiperda; application rate 100 g/ha): 100% | efficacy (caterpillars killed) (Spodoptera frugiperda; application rate 500 g/ha): 100% | LOGP_HCOOH [1]: 5.01 | LOGP_NEUTRAL [1]: 4.89

O=C(NCc1ccc(C(F)(F)F)c(F)c1)c1cc(-c2ccc(C(F)(F)F)cc2)cc(NC(=O)C2CC2)n1 [Example I-064]
efficacy (beetle larvae killed) (Phaedon cochleariae; application rate 500 g/ha): 100% | efficacy (caterpillars killed) (Spodoptera frugiperda; application rate 100 g/ha): 100% | efficacy (caterpillars killed) (Spodoptera frugiperda; application rate 500 g/ha): 100% | LOGP_HCOOH [1]: 4.68 | LOGP_NEUTRAL [1]: 4.53

O=C(NCc1ccc(Cl)cc1F)c1cc(-c2ccc(C(F)(F)F)cc2)cc(NC(=O)C2CC2)n1 [Example I-066]
efficacy (beetle larvae killed) (Phaedon cochleariae; application rate 500 g/ha): 100% | efficacy (caterpillars killed) (Spodoptera frugiperda; application rate 500 g/ha): 100% | LOGP_HCOOH [1]: 4.63 | LOGP_NEUTRAL [1]: 4.53

O=C(NCc1ccc(Cl)cc1F)c1cc(-c2ccc(OC(F)(F)F)cc2)cc(NC(=O)C2CC2)n1 [Example I-067]
efficacy (beetle larvae killed) (Phaedon cochleariae; application rate 500 g/ha): 100% | efficacy (caterpillars killed) (Spodoptera frugiperda; application rate 100 g/ha): 100% | efficacy (caterpillars killed) (Spodoptera frugiperda; application rate 500 g/ha): 100% | LOGP_HCOOH [1]: 4.78 | LOGP_NEUTRAL [1]: 4.60

N#Cc1cc(F)c(CNC(=O)c2cc(-c3ccc(C(F)(F)F)cc3)cc(NC(=O)C3CC3)n2)c(F)c1 [Example I-068]
efficacy (beetle larvae killed) (Phaedon cochleariae; application rate 100 g/ha): 100% | efficacy (beetle larvae killed) (Phaedon cochleariae; application rate 500 g/ha): 100% | efficacy (caterpillars killed) (Spodoptera frugiperda; application rate 100 g/ha): 100% | efficacy (caterpillars killed) (Spodoptera frugiperda; application rate 500 g/ha): 100% | LOGP_HCOOH [1]: 4.00 | LOGP_NEUTRAL [1]: 3.87

CC(C)C(=O)Nc1cc(-c2ccc(C(F)(F)F)cc2)cc(C(=O)NCc2cc(F)c(C#N)cc2F)n1 [Example I-071]
efficacy (beetle larvae killed) (Phaedon cochleariae; application rate 500 g/ha): 83% | efficacy (caterpillars killed) (Spodoptera frugiperda; application rate 100 g/ha): 100% | efficacy (caterpillars killed) (Spodoptera frugiperda; application rate 500 g/ha): 100% | LOGP_HCOOH [1]: 4.23 | LOGP_NEUTRAL [1]: 4.08

N#Cc1cc(F)c(CNC(=O)c2cc(-c3ccc(OC(F)(F)F)cc3)cc(NC(=O)C3CC3)n2)cc1F [Example I-086]
efficacy (beetle larvae killed) (Phaedon cochleariae; application rate 500 g/ha): 100% | efficacy (caterpillars killed) (Spodoptera frugiperda; application rate 100 g/ha): 100% | efficacy (caterpillars killed) (Spodoptera frugiperda; application rate 500 g/ha): 83% | LOGP_HCOOH [1]: 4.15 | LOGP_NEUTRAL [1]: 4.02

CC(C)C(=O)Nc1cc(-c2ccc(C(F)(F)F)cc2)cc(C(=O)NC(C)c2ccc(C#N)cc2)n1 (stereo not drawn) [Example I-087]
efficacy (beetle larvae killed) (Phaedon cochleariae; application rate 500 g/ha): 83% | efficacy (caterpillars killed) (Spodoptera frugiperda; application rate 100 g/ha): 100% | efficacy (caterpillars killed) (Spodoptera frugiperda; application rate 500 g/ha): 100% | LOGP_HCOOH [1]: 4.20 | LOGP_NEUTRAL [1]: 4.15

N#Cc1ccc(CNC(=O)c2cc(-c3ccc(SC(F)(F)F)cc3)cc(NC(=O)C3CC3)n2)cn1 [Example I-090]
efficacy (beetle larvae killed) (Phaedon cochleariae; application rate 500 g/ha): 100% | efficacy (caterpillars killed) (Spodoptera frugiperda; application rate 100 g/ha): 83% | efficacy (caterpillars killed) (Spodoptera frugiperda; application rate 500 g/ha): 100% | LOGP_HCOOH [1]: 3.79 | LOGP_NEUTRAL [1]: 3.72
